Measurements from patent US10772856B2, “Compositions and methods of use of beta-hydroxy-beta-methylbutyrate (HMB) for decreasing fat mass” (Metabolic Technologies, Inc., priority 2015, dated 2020).

Columns and labels:
[1] = system: 3T3-F442A adipocytes; assay: Lipolysis (glycerol release) in 3T3-F442A adipocytes; type: cell-based, Murine; details: 1 hour
Procedure: Methods. Murine 3T3-F442A preadipocytes were grown until confluence. After confluence, 3T3-F442A cells were allowed to differentiate into adipocytes and become filled with triglycerides. Lipolysis was assessed as glycerol release from 3T3-F442A adipocytes in well plates. Adipocyte monolayers were incubated with Krebs-Ringer buffer containing Hepes (KRH), supplemented with 2% fatty acid-free BSA, 5 mM glucose, ADA and PIA. In addition, cells were treated with β-hydroxy-β-methylbutyrate (HMB) at either 0 (control), 0.1, 1, or 6 mM concentrations. Cells were incubated in the absence (Basal) or in the presence of 0.1 μM isoproterenol for 1 hour. Aliquots of the incubation medium were removed and frozen until glycerol determination. Glycerol was measured by a commercial enzymatic method. Data were presented as the fold increase over control. Results. […] Lipolysis in Human Subcutaneous Adipocytes Methods. Human subcutaneous adipocytes were obtained from donors and incubated in vitro. Lipolysis was assessed as glycerol release in well plates. Adipocyte were incubated with Krebs-Ringer buffer containing Hepes (KRH), supplemented with 4% fatty acid-free BSA, 5 mM glucose, ADA and PIA. In addition, cells were treated with β-hydroxy-β-methylbutyrate (HMB) at either 0 (control), 0.1, or 1 mM concentrations in the presence of 1.0 μM isoproterenol for 2 hours. Aliquots of the incubation medium were removed and frozen until glycerol determination. Glycerol was measured by a commercial enzymatic method. Data were presented as the fold increase over control. Results. […] Effect of HMB on Gene Expression in Differentiated Adipocytes SGBS human pre-adipocytes were differentiated into adipocytes and treated with 1 mM HMB for 4 days. The human Simpson-Golabi-Behmel syndrome (SGBS) preadipocyte cell strain cells originate from an adipose tissue specimen of a patient with GSBS. Microarrays (mRNAs) were performed. […] Similarly, cytokine receptor interaction and calcium signaling pathways are also elevated as measured by mRNAs.

[2] = system: Human subcutaneous adipocytes; assay: Lipolysis (glycerol release) in human subcutaneous adipocytes; type: cell-based; details: 1.0 μM isoproterenol, 2 hours
Procedure: (§1) Methods. Murine 3T3-F442A preadipocytes were grown until confluence. After confluence, 3T3-F442A cells were allowed to differentiate into adipocytes and become filled with triglycerides. Lipolysis was assessed as glycerol release from 3T3-F442A adipocytes in well plates. Adipocyte monolayers were incubated with Krebs-Ringer buffer containing Hepes (KRH), supplemented with 2% fatty acid-free BSA, 5 mM glucose, ADA and PIA. In addition, cells were treated with β-hydroxy-β-methylbutyrate (HMB) at either 0 (control), 0.1, 1, or 6 mM concentrations. Cells were incubated in the absence (Basal) or in the presence of 0.1 μM isoproterenol for 1 hour. Aliquots of the incubation medium were removed and frozen until glycerol determination. Glycerol was measured by a commercial enzymatic method. Data were presented as the fold increase over control. Results. […] Lipolysis in Human Subcutaneous Adipocytes Methods. Human subcutaneous adipocytes were obtained from donors and incubated in vitro. Lipolysis was assessed as glycerol release in well plates. Adipocyte were incubated with Krebs-Ringer buffer containing Hepes (KRH), supplemented with 4% fatty acid-free BSA, 5 mM glucose, ADA and PIA. […] Glycerol was measured by a commercial enzymatic method. […] Similarly, cytokine receptor interaction and calcium signaling pathways are also elevated as measured by mRNAs.

[3] = system: SGBS human pre-adipocytes differentiated into adipocytes; assay: Microarray (mRNA) pathway analysis in differentiated SGBS adipocytes; type: cell-based; details: 1 mM HMB for 4 days
Procedure: as §1

[4] = system: Differentiated adipocytes; assay: Gene expression by qPCR in differentiated adipocytes; type: cell-based; details: 1 mM HMB, 4 days
Procedure: Differentiated adipocytes were incubated for 4 days with 1 mM of HMB. RNA was extracted and gene expression was determined by qPCR. Gene expression for ATGL, ACOX, PGC1a, ATG7 and BNIP3 were analyzed. […] ATGL is highly expressed in adipose tissue of humans and mice. ACOX1, or acyl-CoA oxidase 1 is the first enzyme involved in peroxisomal fatty acid oxidation. This occurs when the fatty acid chains are too long to be handled by the mitochondria. The high-potential electrons generated are transferred to O2→H2O2 (+heat) which in the presence of catalase→H2O and O2. PGC1α is a key regulator of energy metabolism and is found to be very important in the development of brown adipose tissue which is the high energy yielding adipose tissue. Autophagy-related protein 7 (ATG7) regulates fat mass. Knocking ATG7 down will result in abnormal non-functional adipose tissue. Elevated levels increase tissue recycling. BNIP3 is another autophagy-related protein like ATG7 that appears to be significant. The gene expression results appear in FIG. 3.

[5] = system: Differentiated human adipocytes (SGBS); assay: Phosphokinase protein array of SGBS adipocytes; type: cell-based; details: 1 mM HMB, 4 days, vs untreated cells
Procedure: This approach was used to determine in non-biased way changes in protein phosphorylation that are known to influence activity of important signaling proteins. Differentiated human adipocytes were treated for 4 days with or without HMB (1 mM). Shown are only the significant increases above untreated cells in phosphorylation of the listed protein at the indicated phosphorylation site(s).

[6] = system: OP9 adipocytes; assay: Basal and isoproterenol stimulated lipolysis in differentiated OP9 adipocytes; type: cell-based
Procedure: As noted above, an increase in expression of ATGL in cells treated with HMB was observed, so the effect of HMB treatment on basal and isoproterenol stimulated lipolysis was determined directly in cultured adipocytes. The protocol of Viswanadha and Londos was used for optimization of conditions for measuring lipolysis in murine primary adipoctyes (J. Lipid Res. 2006. 47: 1859-1864) that include treatment with adenosine deaminase (ADA) to remove endogenous adenosine and then addition of ADA resistant PIA (phenylisopropyl-adenosine).
The following treatment strategies were tested: HMB doses of 0.1, 1 and 6 mM; 2 concentrations of the beta-adrenergic agonist isoproterenol 0.1 and 1 uM, and short term (immediately before lipolysis assay) vs. long term (48 h) HMB treatment (n=4 per treatment). Op9 adipocytes were used as SGBS cells take a long time (several weeks) to differentiate making them inconvenient to use.
Cells were pre-treated with varying concentrations of HMB in OP9 growth medium for 48 hrs. Following pre-treatment, cells were washed and incubated with Isoproterenol (0.1 or 1.0 uM) in lipolysis buffer: Krebs ringer bicarbonate (KRB) with 4% BSA. The medium also contained adenosine deaminase (ADA) and phenyl-isopropyl-adenosine (PIA) for 2 hrs at 37° C. ADA was added to remove endogenous adenosine and PIA, which is resistant to ADA, was used to have low standardized basal lipolysis. Following treatment, media was assayed for glycerol content and cells were lysed with RIPA buffer to determine protein concentration, *p<0.05, ** p<0.01. N=4.

[7] = after HMB is fed; cited from earlier work
[8] = healthy young or old adults; cited from earlier work
[9] = after administration; cited from earlier work
[10] = system: skeletal muscle; details: acute ingestion of 2.4 grams; cited from earlier work

## CC(C)(O)CC(=O)O [HMB, β-hydroxy-β-methylbutyric acid]
[1]; 0.1 μM isoproterenol stimulation, 0.1 mM HMB
  lipolysis (glycerol release, fold increase over control): increased lipolysis
[1]; 0.1 μM isoproterenol stimulation, 6.0 mM HMB
  lipolysis (glycerol release, fold increase over control): decreased lipolysis
[1]; basal, 0.1 mM HMB
  lipolysis (glycerol release, fold increase over control): increased lipolysis above control
[1]; basal, 1 mM HMB
  lipolysis (glycerol release, fold increase over control): increased lipolysis above control
[1]; basal, 6.0 mM HMB
  lipolysis (glycerol release, fold increase over control): decreased lipolysis
[2]; 0.1 mM HMB
  lipolysis (glycerol release, fold increase over control): increased lipolysis above that of control
[2]; 1 mM HMB
  lipolysis (glycerol release, fold increase over control): increased lipolysis above that of control
[3]
  Effect on pathway: IL6 signaling (mRNA microarray): 2.53 fold
[4]
  expression of ATGL: increase
[5]
  Fold Change with HMB, phosphorylation of CREB S133: 1.233 Fold
  Fold Change with HMB, phosphorylation of FGR Y412: 1.262 Fold
  Fold Change with HMB, phosphorylation of Fyn Y420: 1.400 Fold
  Fold Change with HMB, phosphorylation of GSK-3a/b S21/S9: 1.255 Fold
  Fold Change with HMB, phosphorylation of Lyn Y397: 1.335 Fold
  Fold Change with HMB, phosphorylation of P53 S46: 0.834 Fold
  Fold Change with HMB, phosphorylation of RSK1/2/3 S380/S386/S377: 0.732 Fold
  Fold Change with HMB, phosphorylation of STAT5a/b Y694/Y699: 0.804 Fold
  Fold Change with HMB, phosphorylation of Yes Y426: 1.224 Fold
  Fold Change with HMB, phosphorylation of p53 S15: 0.621 Fold
  change in AKT1/2/3 at Threonine 308: no change
[6]; 0.1 mM HMB 48 h pre-treatment, 0.1 uM isoproterenol
  enhancement of lipolysis in response to isoproterenol: 2 fold
[6]; 1 mM HMB 48 h pre-treatment, 0.1 uM isoproterenol
  increase of lipolysis over no HMB: 4 fold
[6]; 6 mM HMB 48 h pre-treatment, 0.1 uM isoproterenol
  enhancement of lipolysis response to isoproterenol: 3 fold
[6]; HMB pretreatment, ADA followed by PIA, no isoproterenol
  increase of basal lipolysis: about 2 fold
[6]; pre-treatment with HMB for 48 h, all HMB doses
  enhancement of isoproterenol-stimulated lipolysis (glycerol): 2-4 fold
[7]
  loss of HMB to urine: 20-50%
[8]
  side effects: no side effects

## CC(C)(O)CC(=O)O [HMB-FA]
[9]
  plasma levels of HMB compared with calcium HMB: approximately double
  time to plasma levels compared with calcium HMB: about one-quarter the time
[10]
  protein breakdown, change: −56%
  skeletal muscle protein synthesis, change: +70%

## CC(C)NCC(O)c1ccc(O)c(O)c1 (centres unmarked) [isoproterenol, reference compound]
[6]; higher concentrations of isoproterenol (1.0 vs 0.1 uM)
  maximal lipolysis: reduced maximal lipolysis
